{"source": "paper PMC7450057", "about": "“Enhancing intracellular accumulation and target engagement of PROTACs with reversible covalent chemistry” (Nature Communications, 2020)", "key": {"[1]": {"assay": "Permeability by lipid-PAMPA method (Pharmaron)", "type": "in vitro ADME", "settings": "PAMPA", "procedure": "The permeability of compounds was measured using Lipid-PAMPA method by Pharmaron. Preparation of stock solutions: testosterone and methotrexate were used as control compounds in this assay. The stock solutions of positive controls were prepared in DMSO or acetonitrile at the concentration of 10 mM. Prepare a stock solution of compounds in DMSO at the concentration of 10 mM, and further dilute with PBS (pH 7.4). […]\nAssay procedures: prepare a 1.8% solution (w/v) of lecithin in dodecane, and sonicate the mixture to ensure a complete dissolution. Carefully pipette 5 μL of the lecithin/dodecane mixture into each acceptor plate well (top compartment), avoiding pipette tip contact with the membrane. Immediately after the application of the artificial membrane (within 10 min), add 300 μL of PBS (pH 7.4) solution to each well of the acceptor plate. Add 300 μL of drug-containing solutions to each well of the donor plate (bottom compartment) in triplicate. Slowly and carefully place the acceptor plate into the donor plate, making sure the underside of the membrane is in contact with the drug-containing solutions in all wells. Replace the plate lid and incubate at 25 °C, 60 rpm for 16 h. After incubation, aliquots of 50 μL from each well of acceptor and donor plate are transferred into a 96-well plate. Add 450 μL of methanol (containing IS: 100 nM Alprazolam, 200 nM Caffeine, 100 nM Tolbutamide) into each well. Cover with plate lid. Vortex at 750 rpm for 100 s. Samples were centrifuged at 3220 × g for 20 min. Determine the compound concentrations by LC/MS/MS. The effective permeability (Pe), in units of centimeter per second, can be calculated using the following equation: LogPe=LogC×−Ln1−drugacceptor/drugequilibrium"}, "[2]": {"molecular_target": "truncated Cereblon protein (Homo sapiens, UniProt Q96SW2)", "sequence (Q96SW2 318-426)": "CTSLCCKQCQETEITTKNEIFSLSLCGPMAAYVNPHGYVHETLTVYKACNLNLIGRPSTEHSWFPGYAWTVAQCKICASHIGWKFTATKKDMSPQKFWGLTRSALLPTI", "assay": "CRBN binding assay (fluorescence quenching)", "settings": "for Fluorescence Intensity: Supplementary Figure 11, replicates", "procedure": "The Kd values of compounds to CRBN were measured based on fluorescence quenching after compounds binding to CRBN. […] All the compounds were dissolved in DMSO (10 mM) as stock solutions. The final drug concentration is 100 nM. […] Fluorescence intensity values for control wells (assay buffer only) were subtracted from each data point prior to analysis. The Kd was calculated using GraphPad Prism with the following equation curve fit. I=I0−If×Kd/P0+Kd+If"}, "MOLM-14 cells": {"system": "MOLM-14 cells", "assay": "Quantification of intracellular drug concentration by LC-MS", "type": "in vitro ADME", "settings": "for Intracellular concentration: Concentration of compound, AVE / intracellular amount, AVE / intracellular amount / Intracellular concentration: Concentration of compound: 200 nM; for Intracellular concentration: Concentration of compound, AVE / intracellular amount, AVE: average of 3 replicates; for intracellular amount: initial amount 0.4000 nmol; for Intracellular concentration: Concentration of compound: sample volume 400 µL", "procedure": "MOLM-14 cells were seeded at a density of 0.5 × 10^6 per mL in 2 mL medium. […] The samples were immediately centrifuged at 12,000 × g for 15 min at 4 °C, then removing the supernatant. In all, 400 μL of NP-40 lysis buffer was added to the cell pellet and mixed thoroughly. The mixtures were rocked for 1 h at 4 °C and centrifuged at 12,000 × g for 15 min at 4 °C. Then the supernatant was transferred to new EP tubes. In total, 20 µL supernatant was extracted with 180 µL of acetonitrile (containing internal standard: 250 nM of RNC-Ctrl) and centrifuged at the same conditions described above. Take 75 μL of supernatant for liquid chromatography-mass spectrometry analysis.\nThe mass spectrometer was operated in positive SIM ion mode (fragmentor 120 V; cycle time 0.6 s/cycle; Agilent Technologies 6130 Quadrupole LC/MS)."}, "BTK": {"molecular_target": "BTK (Homo sapiens, UniProt Q06187)", "sequence (Q06187 whole entry)": "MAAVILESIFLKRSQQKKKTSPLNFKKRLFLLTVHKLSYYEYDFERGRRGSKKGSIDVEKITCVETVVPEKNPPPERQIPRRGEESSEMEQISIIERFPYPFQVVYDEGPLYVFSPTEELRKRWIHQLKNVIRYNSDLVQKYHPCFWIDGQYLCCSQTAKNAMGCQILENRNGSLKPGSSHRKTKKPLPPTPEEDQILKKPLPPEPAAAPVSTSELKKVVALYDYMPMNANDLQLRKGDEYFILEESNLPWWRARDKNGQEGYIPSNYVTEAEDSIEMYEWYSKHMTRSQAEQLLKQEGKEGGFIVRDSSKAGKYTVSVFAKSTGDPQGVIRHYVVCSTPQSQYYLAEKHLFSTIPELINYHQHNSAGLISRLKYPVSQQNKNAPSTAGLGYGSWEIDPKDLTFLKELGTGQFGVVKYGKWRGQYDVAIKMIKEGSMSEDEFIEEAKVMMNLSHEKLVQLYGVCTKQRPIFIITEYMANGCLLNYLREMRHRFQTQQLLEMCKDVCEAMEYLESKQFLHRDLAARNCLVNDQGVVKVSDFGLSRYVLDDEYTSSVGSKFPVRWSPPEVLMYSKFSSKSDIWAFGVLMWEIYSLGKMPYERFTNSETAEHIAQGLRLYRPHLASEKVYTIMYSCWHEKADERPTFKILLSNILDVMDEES", "assay": "BTK degradation in MOLM-14 cells (western blot)", "type": "cell-based", "design": "endogenous in cells; host or cells: MOLM-14", "settings": "Figure 2b, duplicates"}}, "note": "Several values for one entry are separate records, joined by “and”; a condition that tells them apart may be missing. Equal entries are not always repeated."}
{"smiles": "CN(CCCNC(=O)CNc1cccc2c1C(=O)N(C1CCC(=O)NC1=O)C2=O)CCCC(=O)N1CCCC(n2nc(-c3ccc(Oc4ccccc4)cc3)c3c(N)ncnc32)C1", "note": "(stereo not shown) [RNC-1]", "values": [{"measurement": "recovery at 16 h, 10 μM", "setting": "[1]; Recovery%", "value": 30, "unit": "%"}, {"measurement": "Papp at 16 h, 10 μM", "setting": "[1]; pH 7.4", "value": "< 0.00209", "unit": "×10⁻⁶ cm/s"}, {"measurement": "Fluorescence Intensity", "setting": "[2]; CRBN 0 μM", "value": "2486.8 and 2886.8 and 2579.8"}, {"measurement": "Fluorescence Intensity", "setting": "[2]; CRBN 0.734375 μM", "value": "2242.8 and 2235.8 and 2132.8"}, {"measurement": "Fluorescence Intensity", "setting": "[2]; CRBN 1.46875 μM", "value": "2244.8 and 1962.8 and 1899.8"}, {"measurement": "Fluorescence Intensity", "setting": "[2]; CRBN 2.9375 μM", "value": "1778.8 and 1742.8 and 1730.8"}, {"measurement": "Fluorescence Intensity", "setting": "[2]; CRBN 5.875 μM", "value": "1389.8 and 1303.8 and 1288.8"}, {"measurement": "Fluorescence Intensity", "setting": "[2]; CRBN 11.75 μM", "value": "1034.8 and 1140.8 and 1274.8"}, {"measurement": "Fluorescence Intensity", "setting": "[2]; CRBN 23.5 μM", "value": "1293.8 and 1294.8 and 1588.8"}, {"measurement": "Kd", "setting": "[2]; truncated Cereblon protein, fluorescence quenching, triplicates, read-out: Kd", "value": 1800, "unit": "nM"}, {"measurement": "Intracellular concentration: Concentration of compound, AVE", "setting": "MOLM-14 cells; 5 min", "value": 0.0812, "unit": "µM"}, {"measurement": "intracellular amount, AVE", "setting": "MOLM-14 cells; 5 min", "value": 0.0325, "unit": "nmol"}, {"measurement": "intracellular amount", "setting": "MOLM-14 cells; 5 min, single replicates", "value": "0.0283 nmol and 0.0378 nmol and 0.0313 nmol"}, {"measurement": "Intracellular concentration: Concentration of compound", "setting": "MOLM-14 cells; 5 min, single replicates", "value": "0.0707 µM and 0.0946 µM and 0.0782 µM"}, {"measurement": "Intracellular concentration: Concentration of compound, AVE", "setting": "MOLM-14 cells; 15 min", "value": 0.0738, "unit": "µM"}, {"measurement": "intracellular amount, AVE", "setting": "MOLM-14 cells; 15 min", "value": 0.0295, "unit": "nmol"}, {"measurement": "intracellular amount", "setting": "MOLM-14 cells; 15 min, single replicates", "value": "0.0286 nmol and 0.0292 nmol and 0.0308 nmol"}, {"measurement": "Intracellular concentration: Concentration of compound", "setting": "MOLM-14 cells; 15 min, single replicates", "value": "0.0714 µM and 0.0730 µM and 0.0769 µM"}, {"measurement": "Intracellular concentration: Concentration of compound, AVE", "setting": "MOLM-14 cells; 30 min", "value": 0.0681, "unit": "µM"}, {"measurement": "intracellular amount, AVE", "setting": "MOLM-14 cells; 30 min", "value": 0.0272, "unit": "nmol"}, {"measurement": "intracellular amount", "setting": "MOLM-14 cells; 30 min, single replicates", "value": "0.0255 nmol and 0.0275 nmol and 0.0287 nmol"}, {"measurement": "Intracellular concentration: Concentration of compound", "setting": "MOLM-14 cells; 30 min, single replicates", "value": "0.0636 µM and 0.0688 µM and 0.0717 µM"}, {"measurement": "Intracellular concentration: Concentration of compound, AVE", "setting": "MOLM-14 cells; 60 min", "value": 0.0458, "unit": "µM"}, {"measurement": "intracellular amount, AVE", "setting": "MOLM-14 cells; 60 min", "value": 0.0183, "unit": "nmol"}, {"measurement": "intracellular amount", "setting": "MOLM-14 cells; 60 min, single replicates", "value": "0.0183 nmol and 0.0188 nmol and 0.0180 nmol"}, {"measurement": "Intracellular concentration: Concentration of compound", "setting": "MOLM-14 cells; 60 min, single replicates", "value": "0.0457 µM and 0.0469 µM and 0.0450 µM"}, {"measurement": "Intracellular concentration: Concentration of compound, AVE", "setting": "MOLM-14 cells; 90 min", "value": 0.0470, "unit": "µM"}, {"measurement": "intracellular amount, AVE", "setting": "MOLM-14 cells; 90 min", "value": 0.0188, "unit": "nmol"}, {"measurement": "intracellular amount", "setting": "MOLM-14 cells; 90 min, single replicates", "value": "0.0195 nmol and 0.0181 nmol and 0.0187 nmol"}, {"measurement": "Intracellular concentration: Concentration of compound", "setting": "MOLM-14 cells; 90 min, single replicates", "value": "0.0488 µM and 0.0453 µM and 0.0468 µM"}, {"measurement": "Intracellular concentration: Concentration of compound, AVE", "setting": "MOLM-14 cells; 120 min", "value": 0.0445, "unit": "µM"}, {"measurement": "intracellular amount, AVE", "setting": "MOLM-14 cells; 120 min", "value": 0.0178, "unit": "nmol"}, {"measurement": "intracellular amount", "setting": "MOLM-14 cells; 120 min, single replicates", "value": "0.0166 nmol and 0.0169 nmol and 0.0199 nmol"}, {"measurement": "Intracellular concentration: Concentration of compound", "setting": "MOLM-14 cells; 120 min, single replicates", "value": "0.0414 µM and 0.0423 µM and 0.0498 µM"}, {"measurement": "Intracellular concentration: Concentration of compound, AVE", "setting": "MOLM-14 cells; 240 min", "value": 0.0399, "unit": "µM"}, {"measurement": "intracellular amount, AVE", "setting": "MOLM-14 cells; 240 min", "value": 0.0160, "unit": "nmol"}, {"measurement": "intracellular amount", "setting": "MOLM-14 cells; 240 min, single replicates", "value": "0.0161 nmol and 0.0163 nmol and 0.0155 nmol"}, {"measurement": "Intracellular concentration: Concentration of compound", "setting": "MOLM-14 cells; 240 min, single replicates", "value": "0.0402 µM and 0.0408 µM and 0.0387 µM"}, {"measurement": "Cellular concentration", "setting": "MOLM-14 cells; 5 min, Mean", "value": 0.0325, "unit": "nmol/million cells"}, {"measurement": "Cellular concentration", "setting": "MOLM-14 cells; 5 min, single replicates, MOLM-14, 200 nM", "value": "0.0313 nmol/million cells and 0.0283 nmol/million cells and 0.0378 nmol/million cells"}, {"measurement": "Cellular concentration", "setting": "MOLM-14 cells; 15 min, Mean", "value": 0.0295, "unit": "nmol/million cells"}, {"measurement": "Cellular concentration", "setting": "MOLM-14 cells; 15 min, single replicates, MOLM-14, 200 nM", "value": "0.0308 nmol/million cells and 0.0286 nmol/million cells and 0.0292 nmol/million cells"}, {"measurement": "Cellular concentration", "setting": "MOLM-14 cells; 30 min, Mean", "value": 0.0272, "unit": "nmol/million cells"}, {"measurement": "Cellular concentration", "setting": "MOLM-14 cells; 30 min, single replicates, MOLM-14, 200 nM", "value": "0.0287 nmol/million cells and 0.0255 nmol/million cells and 0.0275 nmol/million cells"}, {"measurement": "Cellular concentration", "setting": "MOLM-14 cells; 60 min, Mean", "value": 0.0183, "unit": "nmol/million cells"}, {"measurement": "Cellular concentration", "setting": "MOLM-14 cells; 60 min, single replicates, MOLM-14, 200 nM", "value": "0.0180 nmol/million cells and 0.018 nmol/million cells and 0.0183 nmol/million cells and 0.0188 nmol/million cells"}, {"measurement": "Cellular concentration", "setting": "MOLM-14 cells; 90 min, Mean", "value": 0.0188, "unit": "nmol/million cells"}, {"measurement": "Cellular concentration", "setting": "MOLM-14 cells; 90 min, single replicates, MOLM-14, 200 nM", "value": "0.0187 nmol/million cells and 0.0195 nmol/million cells and 0.0181 nmol/million cells"}, {"measurement": "Cellular concentration", "setting": "MOLM-14 cells; 120 min, Mean", "value": 0.0178, "unit": "nmol/million cells"}, {"measurement": "Cellular concentration", "setting": "MOLM-14 cells; 120 min, single replicates, MOLM-14, 200 nM", "value": "0.0199 nmol/million cells and 0.0166 nmol/million cells and 0.0169 nmol/million cells"}, {"measurement": "Cellular concentration", "setting": "MOLM-14 cells; 240 min, Mean", "value": "0.0160 nmol/million cells and 0.016 nmol/million cells"}, {"measurement": "Cellular concentration", "setting": "MOLM-14 cells; 240 min, single replicates, MOLM-14, 200 nM", "value": "0.0155 nmol/million cells and 0.0161 nmol/million cells and 0.0163 nmol/million cells"}, {"measurement": "Quantification anti-BTK / anti-β-actin (BTK level vs DMSO)", "setting": "BTK; 8 nM", "value": "97.1575 and 95.3789"}, {"measurement": "Quantification anti-BTK / anti-β-actin (BTK level vs DMSO)", "setting": "BTK; 40 nM", "value": "69.0679 and 73.2452"}, {"measurement": "Quantification anti-BTK / anti-β-actin (BTK level vs DMSO)", "setting": "BTK; 200 nM", "value": "33.5661 and 27.9942"}]}
